Experimental data from patent publication US8741884B2, “Compounds for the treatment of hepatitis C” (priority 2010, dated 2014).

Test system: HCV pseudoparticles (genotype 1a HCV E1 and E2 envelope, H77C isolate)
Experiment: microbe, parasite or virus in culture
Format: cell-based
Conditions: Hepatitis C virus, Huh-7, 48 h, HCV pseudoparticles genotype 1a (H77C), Huh7 cells, luciferase 2 days after infection, average of duplicates

Structure (SMILES) | EC50 (class symbol) | EC50 (numeric value)
COC(=O)N1CCCCOc2cc(ccc2C(=O)NCC2(CN3CCCC3)CC2)Nc2nc(nc(OCC(F)(F)F)n2)NCc2ccc(cc2)OCCC1 [Example 3019] | 0.1 to 100 nM | 10.2 nM
COC(=O)c1ccc2cc1OCCCCCCOc1ccc(cc1)CNc1nc(nc(OCC(F)(F)F)n1)N2 [Example 1301] | 100 to 1000 nM | –
CC(C)(C)OC(=O)N1CCCC1CNC(=O)c1ccc2cc1OCCCCCCOc1ccc(cc1)CNc1nc(nc(OCC(F)(F)F)n1)N2 (stereo not drawn) [Example 1306] | 0.1 to 100 nM | –
COC(=O)[C@H](CNC(=O)c1ccccc1)NC(=O)c1ccc2cc1OCCCCCCOc1ccc(cc1)CNc1nc(nc(OCC(F)(F)F)n1)N2 [Example 1323] | 0.1 to 100 nM | –
N=C(N)NCCCCNC(=O)c1ccc2cc1OCCCCCCOc1ccc(cc1)CNc1nc(nc(OCC(F)(F)F)n1)N2 [Example 1314] | 0.1 to 100 nM | –
O=C(NC1CCNC1=O)c1ccc2cc1OCCCCCCOc1ccc(cc1)CNc1nc(nc(OCC(F)(F)F)n1)N2 (stereo not drawn) [Example 1324] | 0.1 to 100 nM | –
FC(F)(F)COc1nc2nc(n1)NC1(CC1)c1ccc(cc1)OCCCCOc1cccc(c1)N2 [Example 2009] | 0.1 to 100 nM | 18 nM
C=C1COc2ccc(cc2)CNc2nc(nc(OCC(F)(F)F)n2)Nc2ccc(C(=O)O)c(c2)OC1 [Example 1005] | 1000 to 50000 nM | –
FC(F)(F)COc1nc2nc(n1)Nc1cccc(c1)OCCCCOc1cccc(c1)N2 [Example 2004] | 0.1 to 100 nM | –
CC(C)(C)OC(=O)NC[C@H](NC(=O)c1ccc2cc1OCCCCCCOc1ccc(cc1)CNc1nc(nc(OCC(F)(F)F)n1)N2)C(N)=O [Example 1700] | 0.1 to 100 nM | –
CCN1CCCOc2ccc(cc2)CNc2nc(nc(OCC(F)(F)F)n2)Nc2ccc(C(=O)NCC3(CN4CCCC4)CC3)c(c2)OCCC1 [Example 3011] | 0.1 to 100 nM | –
CC(C)(C)OC(=O)N1CCCC(C(NC(=O)c2ccc3cc2OCCCCCCOc2ccc(cc2)CNc2nc(nc(OCC(F)(F)F)n2)N3)C(=O)O)C1 (stereo not drawn) [Example 1551] | 0.1 to 100 nM | –
N=C(N)NC[C@H](NC(=O)c1ccc2cc1OCCCCCCOc1ccc(cc1)CNc1nc(nc(OCC(F)(F)F)n1)N2)C(=O)O [Example 1403] | 0.1 to 100 nM | –
FC(F)(F)COc1nc2nc(n1)Nc1cccc(c1)OCC=CCOc1ccc(cc1)CN2 [Example 2001] | 0.1 to 100 nM | –
CN(C)CC(C)(C)CNC(=O)c1ccc2cc1OCCCCCCOc1ccc(cc1)CNc1nc(nc(OCC(F)(F)F)n1)N2 [Example 1202] | 0.1 to 100 nM | –
COC(=O)[C@H](CNC(=O)OC(C)(C)C)NC(=O)c1ccc2cc1OCCCCCCOc1ccc(cc1)CNc1nc(nc(OCC(F)(F)F)n1)N2 [Example 1321] | 0.1 to 100 nM | –
O=C(O)c1ccc2cc1OCCCCCCOc1ccc(cc1)CNc1nc(nc(OCC(F)(F)F)n1)N2 [Example 1302] | 1000 to 50000 nM | –
O=C(NC(C(=O)O)C1CCCNC1)c1ccc2cc1OCCCCCCOc1ccc(cc1)CNc1nc(nc(OCC(F)(F)F)n1)N2 (stereo not drawn) [Example 1552] | 0.1 to 100 nM | –
CC(C)(C)OC(=O)NC[C@H](NC(=O)c1ccc2cc1OCCOCCOCCOc1ccc(cc1)CNc1nc(nc(OCC(F)(F)F)n1)N2)C(=O)O [Example 1608] | 0.1 to 100 nM | 56.2 nM
CCOC(=O)[C@H](CCCNC(=N)N)NC(=O)c1ccc2cc1OCCCCCCOc1ccc(cc1)CNc1nc(nc(OCC(F)(F)F)n1)N2 [Example 1317] | 0.1 to 100 nM | –

Structure (SMILES) | EC50 (class symbol) | EC50 (numeric value)
FC(F)(F)COc1nc2nc(n1)Nc1cccc(c1)OCC=CCOc1cccc(c1)N2 [Example 2003] | 0.1 to 100 nM | –
O=C1NCCCCCCNc2nc(nc(OCC(F)(F)F)n2)Nc2cccc1c2 [Example 1001] | 1000 to 50000 nM | –
O=C(NCC1(CN2CCCC2)CC1)c1ccc2cc1OCC=CCOc1ccc(cc1)CNc1nc(nc(OCC(F)(F)F)n1)N2 [Example 2006] | 0.1 to 100 nM | –
CN(C)CC(C)(C)CNC(=O)c1ccc2cc1OCCCC(O)C(O)CCCOc1ccc(cc1)CNc1nc(nc(OCC(F)(F)F)n1)N2 (stereo not drawn) [Example 1022] | 0.1 to 100 nM | –
N=C(N)NCCC[C@@H](NC(=O)c1ccc2cc1OCCOCCOCCOc1ccc(cc1)CNc1nc(nc(OCC(F)(F)F)n1)N2)C(=O)O [Example 1603] | 0.1 to 100 nM | –
CC[C@@H](C)[C@H](NC(=O)c1ccc2cc1OCCCCCCOc1ccc(cc1)CNc1nc(nc(OCC(F)(F)F)n1)N2)C(=O)O [Example 1404] | 0.1 to 100 nM | –
COC(=O)c1ccc2cc1OCC=CCOc1ccc(cc1)CNc1nc(nc(OCC(F)(F)F)n1)N2 [Example 2005] | 0.1 to 100 nM | –
COC(=O)CNC(=O)c1ccc2cc1OCCCCCCCCOc1ccc(cc1)CNc1nc(nc(OCC(F)(F)F)n1)N2 [Example 1104] | 100 to 1000 nM | –
COC(=O)C(NC(=O)c1ccc2cc1OCCOCCOCCOc1ccc(cc1)CNc1nc(nc(OCC(F)(F)F)n1)N2)C1CCCNC1 (stereo not drawn) [Example 1607] | 0.1 to 100 nM | –
O=C(NCC1CCCN1)c1ccc2cc1OCCCCCCOc1ccc(cc1)CNc1nc(nc(OCC(F)(F)F)n1)N2 (stereo not drawn) [Example 1503] | 0.1 to 100 nM | –
CCCN1CCCOc2ccc(cc2)CNc2nc(nc(OCC(F)(F)F)n2)Nc2ccc(C(=O)NCC3(CN4CCCC4)CC3)c(c2)OCCC1 [Example 3012] | 0.1 to 100 nM | –
FC(F)(F)COc1nc2nc(n1)NC1(CC1)c1ccc(cc1)OC/C=C/COc1cccc(c1)N2 [Example 2008] | 0.1 to 100 nM | –
COC(=O)CC1CCN(C(=O)c2ccc3cc2OCCCCCCCCOc2ccc(cc2)CNc2nc(nc(OCC(F)(F)F)n2)N3)C1 (stereo not drawn) [Example 1103] | 1000 to 50000 nM | –
CC(C)(C)OC(=O)N1CCC(CNC(=O)c2ccc3cc2OCCCCCCOc2ccc(cc2)CNc2nc(nc(OCC(F)(F)F)n2)N3)C1 (stereo not drawn) [Example 1305] | 0.1 to 100 nM | –
CC(C)(C)OC(=O)N1CCC(CNC(=O)c2ccc3cc2OCCCCCCOc2ccc(cc2)CNc2nc(nc(OCC(F)(F)F)n2)N3)(C(=O)O)CC1 [Example 1557] | 100 to 1000 nM | –
CCOC(=O)N1CCCOc2ccc(cc2)CNc2nc(nc(OCC(F)(F)F)n2)Nc2ccc(C(=O)NCC3(CN4CCCC4)CC3)c(c2)OCCC1 [Example 3005] | 0.1 to 100 nM | –
COC(=O)[C@H](CNC(=O)OC(C)(C)C)NC(=O)c1ccc2cc1OCCOCCOCCOc1ccc(cc1)CNc1nc(nc(OCC(F)(F)F)n1)N2 [Example 1604] | 0.1 to 100 nM | –
O=C(c1ccc2cc1OCCCCCCCCOc1ccc(cc1)CNc1nc(nc(OCC(F)(F)F)n1)N2)N1CCC2(CCNC2)C1 (stereo not drawn) [Example 1153] | 100 to 1000 nM | –
CC(C)OC(=O)N1CCCOc2ccc(cc2)CNc2nc(nc(OCC(F)(F)F)n2)Nc2ccc(C(=O)NCC3(CN4CCCC4)CC3)c(c2)OCCC1 [Example 3006] | 0.1 to 100 nM | –
COC(=O)[C@H](CNS(C)(=O)=O)NC(=O)c1ccc2cc1OCCCCCCOc1ccc(cc1)CNc1nc(nc(OCC(F)(F)F)n1)N2 [Example 1702] | 0.1 to 100 nM | –

Structure (SMILES) | EC50 (class symbol) | EC50 (numeric value)
CC(C)CN1CCCOc2ccc(cc2)CNc2nc(nc(OCC(F)(F)F)n2)Nc2ccc(C(=O)NCC3(CN4CCCC4)CC3)c(c2)OCCC1 [Example 3013] | 0.1 to 100 nM | –
CN(C)CC(C)(C)CNC(=O)c1ccc2cc1OCCCCCCCCOc1ccc(cc1)CNc1nc(nc(OCC(F)(F)F)n1)N2 [Example 1010] | 0.1 to 100 nM | 5.14 nM
CC(C)(C)OC(=O)N1CCCC(NC(=O)c2ccc3cc2OCCCCCCCCOc2ccc(cc2)CNc2nc(nc(OCC(F)(F)F)n2)N3)C1 (stereo not drawn) [Example 1012] | 0.1 to 100 nM | –
CN1CCCOc2ccc(cc2)CNc2nc(nc(OCC(F)(F)F)n2)Nc2ccc(C(=O)NCC3(CN4CCCC4)CC3)c(c2)OCCC1 [Example 3010] | 0.1 to 100 nM | –
O=C(NC(Cc1ccccc1)C(=O)O)c1ccc2cc1OCCCCCCOc1ccc(cc1)CNc1nc(nc(OCC(F)(F)F)n1)N2 (stereo not drawn) [Example 1405] | 0.1 to 100 nM | –
CN(C)CC(C)(C)CNC(=O)c1ccc2cc1OCCCCCCOCC(c1ccccc1)Nc1nc(nc(OCC(F)(F)F)n1)N2 (stereo not drawn) [Example 1807] | 1000 to 50000 nM | –
CC(C)(C)OC(=O)N1C[C@H](C(=O)O)[C@H](NC(=O)c2ccc3cc2OCCCCCCOc2ccc(cc2)CNc2nc(nc(OCC(F)(F)F)n2)N3)C1 [Example 1558] | 0.1 to 100 nM | –
CC(C)(C)OC(=O)NC1(C(=O)O)CCN(C(=O)c2ccc3cc2OCCCCCCCCOc2ccc(cc2)CNc2nc(nc(OCC(F)(F)F)n2)N3)C1 (stereo not drawn) [Example 1018] | 1000 to 50000 nM | 5640 nM
COC(=O)CCNC(=O)c1ccc2cc1OCCCCCCOc1ccc(cc1)CNc1nc(nc(OCC(F)(F)F)n1)N2 [Example 1303] | 100 to 1000 nM | –
COC(=O)c1ccc2cc1OCCCN(C(=O)OC(C)(C)C)CCCOc1ccc(cc1)CNc1nc(nc(OCC(F)(F)F)n1)N2 [Example 3001] | 0.1 to 100 nM | –
COC(=O)C(NC(=O)c1ccc2cc1OCCCCCCOc1ccc(cc1)CNc1nc(nc(OCC(F)(F)F)n1)N2)C1CCCN(C(=O)OC(C)(C)C)C1 (stereo not drawn) [Example 1304] | 0.1 to 100 nM | –
O=C(NC[C@H](NC(=O)c1ccc2cc1OCCCCCCOc1ccc(cc1)CNc1nc(nc(OCC(F)(F)F)n1)N2)C(=O)O)c1ccccc1 [Example 1562] | 0.1 to 100 nM | 28.7 nM
CC(C)(C)OC(=O)N1CCCCOc2cc(ccc2C(=O)NCC2(CN3CCCC3)CC2)Nc2nc(nc(OCC(F)(F)F)n2)NCc2ccc(cc2)OCCC1 [Example 3016] | 0.1 to 100 nM | –
CC(C)(C)OC(=O)N1CCCOc2ccc(cc2)CNc2nc(nc(OCC(F)(F)F)n2)Nc2ccc(C(=O)O)c(c2)OCCC1 [Example 3002] | 0.1 to 100 nM | –
O=C(NCC1CCNC1)c1ccc2cc1OCCCCCCCCOc1ccc(cc1)CNc1nc(nc(OCC(F)(F)F)n1)N2 (stereo not drawn) [Example 1151] | 0.1 to 100 nM | –
CNC(=O)NC[C@H](NC(=O)c1ccc2cc1OCCCCCCOc1ccc(cc1)CNc1nc(nc(OCC(F)(F)F)n1)N2)C(=O)O [Example 1707] | 0.1 to 100 nM | –
COC(=O)C(NC(=O)c1ccc2cc1OCCCCCCOc1ccc(cc1)CNc1nc(nc(OCC(F)(F)F)n1)N2)C1CCN(C(=O)OC(C)(C)C)C1 (stereo not drawn) [Example 1310] | 0.1 to 100 nM | –
CC(C)(C)OC(=O)N1CCCOc2ccc(cc2)CNc2nc(nc(OCC(F)(F)F)n2)Nc2ccc(C(=O)NCC3(CN4CCCC4)CC3)c(c2)OCCC1 [Example 3003] | 0.1 to 100 nM | –
CC(C)(C)OC(=O)N1CCCC1CC(NC(=O)c1ccc2cc1OCCCCCCOc1ccc(cc1)CNc1nc(nc(OCC(F)(F)F)n1)N2)C(=O)O (stereo not drawn) [Example 1407] | 0.1 to 100 nM | –
CC(C)(C)OC(=O)N1CCC2(CCN(C(=O)c3ccc4cc3OCCCCCCCCOc3ccc(cc3)CNc3nc(nc(OCC(F)(F)F)n3)N4)C2)C1 (stereo not drawn) [Example 1109] | 100 to 1000 nM | –
